Here are results for 11 compounds from ChEMBL document CHEMBL1201862, “PubChem BioAssay data set” (2004).

The structures appear in SMILES notation.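 Dose response: 5 concentrations. Exposure: 48 h. Format: 96-well plates. Endpoint: linear interpolation; highest concentration if not reached. GI50: concentration for 50% inhibition of growth.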 The source made the active and inactive calls. Rule as the data show it: active = GI50 up to about 1.1 µM and inactive = higher. Bounds are passed on as bounds.

Some test systems named below: HOP-92; U-251; EKVX; 786-0; SN12C; NCI-H226; M14; OVCAR-5; UACC-62; SK-MEL-28; SNB-75; SF-539; NCI-H522; DU-145; SK-OV-3; OVCAR-8; UO-31; HT-29; COLO 205; HL-60.
Experiment in all cases: inhibition of tumour cell growth, NCI panel, 48 h

Turning to `CC(C)c1nccn1Cc1ccc(Cl)cc1Cl`, the GI50 with HOP-92 is 37.8 µM (inactive); in the assay with U-251, 41.5 µM (inactive); with EKVX, 25.5 µM (inactive); in the assay with 786-0, 38 µM (inactive); with SN12C, 26.5 µM (inactive); in the assay with NCI-H226 it was 22.4 µM (inactive). The GI50 in the assay on M14 is 38.1 µM (inactive); in the assay with OVCAR-5, 27.7 µM (inactive); in the assay with UACC-62, 43.8 µM (inactive); in the assay on SK-MEL-28, > 100 µM (inactive); in the assay on SNB-75 it was 36.5 µM (inactive); in the assay on SF-539, 61.2 µM (inactive). For the same compound, the GI50 with NCI-H522 is 21.2 µM (inactive); in the assay on DU-145, 14.8 µM (inactive); in the assay with SK-OV-3, 47.9 µM (inactive); in the assay with OVCAR-8, 46.2 µM (inactive); with UO-31 it was 24.9 µM (inactive); with HT-29, 28.8 µM (inactive). In the assay on COLO 205, the GI50 was 29.2 µM (inactive).
As to `COc1ccc(CCn2ccc(C)n2)c(OC)c1`, the GI50 in the assay on U-251 was > 100 µM (inactive); in the assay with EKVX, 47.2 µM (inactive); with SN12C it was 46 µM (inactive); in the assay with M14 it was > 100 µM (inactive); in the assay on OVCAR-5 it was > 100 µM (inactive); with UACC-62 it was 90.8 µM (inactive). Moreover, the GI50 was > 100 µM (inactive) in the assay with SK-MEL-28; 34 µM (inactive) with SNB-75; > 100 µM (inactive) with SF-539; > 100 µM (inactive) with DU-145; > 100 µM (inactive) with SK-OV-3; > 100 µM (inactive) with OVCAR-8. Further, the figures for the GI50 with UO-31, in the assay on HT-29 and in the assay on COLO 205 were 46.6 µM (inactive), > 100 µM (inactive) and > 100 µM (inactive), respectively.
With `Cc1ccc(S(=O)(=O)N(c2ccccc2F)C2CCCCC2O)cc1` (stereo not drawn), the GI50 with U-251 is 46.6 µM (inactive); in the assay with EKVX it was 35.1 µM (inactive); with 786-0, 65.6 µM (inactive); with SN12C, 56.9 µM (inactive); in the assay on NCI-H226 it was > 100 µM (inactive); with M14, 74.1 µM (inactive). Also, the GI50 is > 100 µM (inactive) in the assay on OVCAR-5; 46.9 µM (inactive) with UACC-62; > 100 µM (inactive) in the assay on SK-MEL-28; 20 µM (inactive) in the assay with SNB-75; > 100 µM (inactive) in the assay with SF-539; 24.9 µM (inactive) in the assay with DU-145. Also, the GI50 in the assay on SK-OV-3 was 22.3 µM (inactive); with OVCAR-8 it was 78 µM (inactive); with UO-31, 33.1 µM (inactive); in the assay on HL-60 it was 23.3 µM (inactive); in the assay on HT-29 it was 43 µM (inactive); in the assay with COLO 205, 27.2 µM (inactive).
For the compound `COc1cc([C@@H]2c3cc4c(cc3[C@@H](Nc3ccc(Cl)cc3C(=O)c3ccccc3Cl)[C@H]3COC(=O)[C@H]23)OCO4)cc(OC)c1OC`, the GI50 in the assay on U-251 was 0.0998 µM (active); with EKVX, 57.9 µM (inactive); in the assay on 786-0 it was 0.261 µM (active); in the assay with SN12C, 0.371 µM (active); with NCI-H226 it was 0.0294 µM (active); in the assay with M14, 0.303 µM (active). The GI50 in the assay on UACC-62 is 0.118 µM (active); in the assay on SK-MEL-28, 0.333 µM (active); in the assay on SNB-75, 0.188 µM (active); in the assay on SF-539 it was 0.076 µM (active); with NCI-H522 it was 0.0685 µM (active); with DU-145 it was 0.314 µM (active). In addition, the GI50 in the assay on SK-OV-3 is 1.19 µM (inactive); in the assay with OVCAR-8, 0.152 µM (active); with UO-31, 0.344 µM (active); with HL-60, 0.0695 µM (active); in the assay on HT-29 it was 0.09 µM (active); in the assay with COLO 205 it was 0.267 µM (active).
Consider `CC1(C)C2CCC1(C)[C@H](O)[C@H]2Nc1cc(C(F)(F)F)cc(C(F)(F)F)c1` (stereo partly drawn), for which the GI50 in the assay with U-251 was 4.15 µM (inactive); in the assay on EKVX, 3.83 µM (inactive); in the assay with 786-0, 3.85 µM (inactive); in the assay on NCI-H226, 6.5 µM (inactive); in the assay on M14, 4.06 µM (inactive); in the assay on OVCAR-5 it was 7.41 µM (inactive). Besides, the GI50 with UACC-62 is > 100 µM (inactive); with SK-MEL-28, 1.74 µM (inactive); with SNB-75, 0.0252 µM (active); with SF-539 it was 4.66 µM (inactive); with DU-145, 3.66 µM (inactive); in the assay with SK-OV-3, 3.88 µM (inactive). Besides, the GI50 in the assay with OVCAR-8 was 3.21 µM (inactive); with UO-31, 3.51 µM (inactive); in the assay with HT-29 it was 3.32 µM (inactive); in the assay with COLO 205, 1.79 µM (inactive).
Turning to `CC1=CCC2CC1C(C(=O)c1c[nH]c3ccccc13)=NC2(C)C` (stereo not drawn), the GI50 with U-251 is 34.5 µM (inactive); with EKVX it was 33.3 µM (inactive); in the assay on 786-0, 81.1 µM (inactive); in the assay on SN12C, 87.9 µM (inactive); with NCI-H226, > 100 µM (inactive); in the assay on M14 it was 41.5 µM (inactive). For the same compound, the GI50 is > 100 µM (inactive) with OVCAR-5; 25.2 µM (inactive) with UACC-62; > 100 µM (inactive) in the assay on SK-MEL-28; > 100 µM (inactive) in the assay with SF-539; 44.4 µM (inactive) with NCI-H522; > 100 µM (inactive) in the assay with DU-145. For the same compound, the GI50 in the assay on SK-OV-3 was 94.4 µM (inactive); in the assay on OVCAR-8, 56.5 µM (inactive); in the assay with UO-31, 48.8 µM (inactive); in the assay with HL-60, 20.8 µM (inactive); in the assay with HT-29 it was 51.1 µM (inactive); with COLO 205, 52.2 µM (inactive).
Regarding `C=C(C)OCOCCOC`, the GI50 in the assay with U-251, in the assay with EKVX, in the assay on 786-0, with SN12C, in the assay with NCI-H226 and in the assay with M14 was > 100 µM (inactive) each time. For the same compound, the GI50 with OVCAR-5, in the assay with UACC-62, with SK-MEL-28, with SNB-75, with SF-539 and with NCI-H522 was > 100 µM (inactive) in each case. Moreover, the GI50 with DU-145, in the assay with SK-OV-3, in the assay on OVCAR-8, with UO-31, with HL-60 and in the assay with HT-29 was > 100 µM (inactive) each time. The GI50 in the assay on COLO 205 is > 100 µM (inactive).
Consider `C=C(Br)CN(CC(=C)Br)C(C)=O`, for which the GI50 in the assay with U-251, with EKVX, in the assay with 786-0, in the assay with SN12C, with NCI-H226 and in the assay on M14 was > 100 µM (inactive) each time. For the same compound, the GI50 in the assay with OVCAR-5, in the assay with UACC-62, in the assay on SK-MEL-28, in the assay with SNB-75, in the assay with SF-539 and with NCI-H522 was > 100 µM (inactive) throughout. Besides, the GI50 with DU-145, in the assay on SK-OV-3, in the assay on OVCAR-8, in the assay on UO-31, in the assay on HL-60 and in the assay on HT-29 was > 100 µM (inactive) throughout. The GI50 with COLO 205 was > 100 µM (inactive).
Turning to `CCCc1[nH]c2ccccc2c1-c1c(CCC)[nH]c2ccccc12`, the GI50 in the assay with HOP-92 was 19.5 µM (inactive); in the assay with U-251, 6.71 µM (inactive); in the assay on EKVX it was 16.8 µM (inactive); in the assay with 786-0 it was 15.5 µM (inactive); in the assay on SN12C, 10.1 µM (inactive); in the assay with NCI-H226, 19.2 µM (inactive). Besides, the GI50 in the assay with M14 is 12.6 µM (inactive); with OVCAR-5 it was 16.9 µM (inactive); with UACC-62 it was 13.3 µM (inactive); in the assay on SK-MEL-28, 7.46 µM (inactive); with SNB-75, 19.4 µM (inactive); with SF-539, 8.36 µM (inactive). Besides, the GI50 in the assay on NCI-H522 was 17.1 µM (inactive); with DU-145, 11.3 µM (inactive); in the assay on SK-OV-3, 24.1 µM (inactive); in the assay on OVCAR-8, 3.35 µM (inactive); in the assay on UO-31 it was 16.7 µM (inactive); in the assay on HT-29, 8.61 µM (inactive). Further, in the assay on COLO 205, the GI50 was 17.9 µM (inactive).
In the case of `COC(=O)/C=c1\s/c(=C\C(=O)OC)c2ccccc12`, the GI50 is > 100 µM (inactive) in the assay on HOP-92; > 100 µM (inactive) with U-251; > 100 µM (inactive) in the assay with EKVX; > 100 µM (inactive) in the assay on 786-0; > 100 µM (inactive) with SN12C; 57.8 µM (inactive) with NCI-H226. The GI50 with M14 is > 100 µM (inactive); in the assay with OVCAR-5, > 100 µM (inactive); with UACC-62, > 100 µM (inactive); in the assay on SK-MEL-28 it was > 100 µM (inactive); in the assay on SNB-75 it was 27.9 µM (inactive); in the assay on SF-539, > 100 µM (inactive). For the same compound, the GI50 with NCI-H522 is > 100 µM (inactive); in the assay on SK-OV-3, > 100 µM (inactive); in the assay on OVCAR-8, > 100 µM (inactive); in the assay with UO-31 it was 89.1 µM (inactive); in the assay on HL-60 it was > 100 µM (inactive); with HT-29, > 100 µM (inactive). Moreover, in the assay on COLO 205, the GI50 is > 100 µM (inactive).
For `CN(C)CCCN1C(=O)N(CCCN(C)C)c2c3cc(O)ccc3nc3c([N+](=O)[O-])ccc1c23`, the GI50 in the assay on HOP-92 is 4.82 µM (inactive); in the assay with U-251 it was 14.2 µM (inactive); in the assay with 786-0, 8.13 µM (inactive); in the assay on SN12C, 20 µM (inactive); in the assay on NCI-H226, 23.2 µM (inactive); with M14, 32.7 µM (inactive). For the same compound, the GI50 is 53.1 µM (inactive) in the assay on OVCAR-5; 11.9 µM (inactive) with UACC-62; 43.3 µM (inactive) in the assay on SK-MEL-28; 29.3 µM (inactive) in the assay on SNB-75; 16 µM (inactive) with SF-539; 6.92 µM (inactive) with NCI-H522. Further, the GI50 in the assay on DU-145 is 27.9 µM (inactive); in the assay on SK-OV-3 it was 32.7 µM (inactive); in the assay on OVCAR-8, 15.8 µM (inactive); with UO-31 it was 20.5 µM (inactive); in the assay with HT-29 it was 11.8 µM (inactive); with COLO 205, 13.7 µM (inactive).
